Data on 36 compounds can be found in patent US20160333006A1, “ARYL LACTA KINASE INHIBITORS” (Bristol-Myers Squibb Company, priority 2014, published 2016).

The target of this assay is T1, GST-Xa-hAAK1 (Homo sapiens, UniProt Q2M2I8).
T1 construct: made in house
T1 sequence (Q2M2I8 whole entry): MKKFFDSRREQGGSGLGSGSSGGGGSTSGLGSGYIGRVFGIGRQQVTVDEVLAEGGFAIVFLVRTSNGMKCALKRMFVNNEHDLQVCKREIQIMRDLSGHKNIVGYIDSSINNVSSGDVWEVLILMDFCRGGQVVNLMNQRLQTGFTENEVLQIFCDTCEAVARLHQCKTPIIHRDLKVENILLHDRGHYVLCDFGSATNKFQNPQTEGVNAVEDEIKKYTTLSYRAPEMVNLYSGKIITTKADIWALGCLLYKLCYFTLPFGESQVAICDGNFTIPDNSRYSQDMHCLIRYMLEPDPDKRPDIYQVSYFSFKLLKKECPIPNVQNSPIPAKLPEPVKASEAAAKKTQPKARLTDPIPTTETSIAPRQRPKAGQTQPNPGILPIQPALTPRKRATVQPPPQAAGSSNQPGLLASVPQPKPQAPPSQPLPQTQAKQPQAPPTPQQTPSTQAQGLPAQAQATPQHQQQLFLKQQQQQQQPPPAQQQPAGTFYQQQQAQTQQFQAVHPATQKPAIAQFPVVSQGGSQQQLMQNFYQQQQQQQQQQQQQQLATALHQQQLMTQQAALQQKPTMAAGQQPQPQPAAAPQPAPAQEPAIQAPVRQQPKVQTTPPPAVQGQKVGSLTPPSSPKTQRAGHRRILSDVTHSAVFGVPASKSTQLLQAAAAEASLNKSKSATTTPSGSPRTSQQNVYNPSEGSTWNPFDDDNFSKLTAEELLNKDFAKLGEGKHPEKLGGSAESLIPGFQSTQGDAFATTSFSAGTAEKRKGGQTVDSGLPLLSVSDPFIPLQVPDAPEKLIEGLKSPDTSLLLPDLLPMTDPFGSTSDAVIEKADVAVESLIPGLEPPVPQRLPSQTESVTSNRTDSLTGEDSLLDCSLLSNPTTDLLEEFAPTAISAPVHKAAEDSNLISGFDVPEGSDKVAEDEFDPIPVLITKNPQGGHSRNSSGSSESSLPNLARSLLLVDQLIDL
Briefly: AAK1 kinase assay. Format: biochemical. The following applies: ATP 22 μM; given as IC50 range. The method, then: The assays were performed in U-bottom 384-well plates. […] The reactions were initiated by the combination of bacterially expressed, GST-Xa-hAAK1 with substrates and test compounds. The reactions were incubated at room temperature for 3 hours and terminated by adding 60 μl of 35 mM EDTA buffer to each sample. The reactions were analyzed on the Caliper LabChip 3000 (Caliper, Hopkinton, Mass.) by electrophoretic separation of the fluorescent substrate and phosphorylated product. […] Compounds were dissolved at 10 mM in dimethylsulfoxide (DMSO) and evaluated at eleven concentrations. IC50 values were derived by non-linear regression analysis.
As to `Cc1nccc2c1c(=O)n(C)c1cc(OCC(N)CC(C)C(F)(F)F)ccc21` (single isomer, unassigned) [Example 87], the IC50 (commonly the concentration that inhibits the measured activity by half) lay in the range of 1 to 10 nM.

Consider `Cc1nccc2c1c(=O)n(C)c1cc(OCC(N)CC(C)C(F)(F)F)ccc21` (single isomer, unassigned) [Example 88], for which the IC50 was in the range of 1 to 10 nM.

`Cn1c(=O)c2cnccc2c2ccc(OCC(N)CC(F)(F)F)cc21` (single isomer, unassigned) [Example 135, 8-(2-amino-4,4,4-trifluorobutoxy)-6-methylbenzo[c][2,7]naphthyridin-5(6H)-one]: the 50% inhibitory concentration (IC50) fell in the range of 10 to 100 nM.

Take `Cn1c(=O)c2cnccc2c2ccc(OCC(N)CC(F)(F)F)cc21` (single isomer, unassigned) [Example 136, 8-(2-amino-4,4,4-trifluorobutoxy)-6-methylbenzo[c][2,7]naphthyridin-5(6H)-one]: the IC50 fell in the range of 1 to 10 nM.

With `Cc1cc2c3ccncc3c(=O)n(C)c2cc1OC[C@@H](N)CC(C)C` [Example 4, (S)-8-((2-amino-4-methylpentyl)oxy)-6,9-dimethylbenzo[c][2,7]naphthyridin-5(6H)-one], the IC50 fell in the range of 1 to 10 nM.

Consider `CC(C)C[C@H](N)COc1cc2c(cc1C#N)c1ccncc1c(=O)n2C` [Example 5, (S)-8-((2-amino-4-methylpentyl)oxy)-6-methyl-5-oxo-5,6 dihydrobenzo[c][2,7]naphthyridine-9-carbonitrile], for which the IC50 fell in the range of 1 to 10 nM.

Turning to `CC(C)C[C@H](N)COc1c(Cl)cc2c3ccncc3c(=O)n(C)c2c1Cl` [Example 10, (S)-8-((2-amino-4-methylpentyl)oxy)-7,9-dichloro-6-methylbenzo[c][2,7]naphthyridin-5(6H) one], the IC50 was 10 to 100 nM.

For `Cc1nccc2c1c(=O)n(C)c1cc(OC[C@@H](N)CC(C)C)c(C(F)F)cc21` [Example 27, (S)-8-((2-amino-4-methylpentyl)oxy)-9-(difluoromethyl)-4,6-dimethylbenzo[c][2,7]naphthyridin-5(6H)-one], the IC50 was less than 1 nM.

In the case of `CC(C)C[C@@H](COc1ccc2c3ccncc3c(=O)n(C)c2c1)N(C)C` [Example 39, (S)-8-((2-(dimethylamino)-4-methylpentyl)oxy)-6-methylbenzo[c][2,7]naphthyridin-5(6H)-one], the IC50 was 10 to 100 nM.

Turning to `COc1nccc2c1c(=O)n(C)c1cc(OC[C@@H](N)CC(C)C)ccc21` [Example 42, (S)-8-(2-amino-4-methylpentyloxy)-4-methoxy-6-methylbenzo[c][2,7]naphthyridin-5(6H)-one], the IC50 was in the range of 100 to 2000 nM.

Consider `CC(C)C[C@H](N)COc1cc2c(cc1Cl)c1ccncc1c(=O)n2C` [Example 43, (S)-8-((2-amino-4-methylpentyl)oxy)-9-chloro-6-methylbenzo[c][2,7]naphthyridin-5(6H)-one], for which the IC50 was 1 to 10 nM.

As to `Cc1nccc2c1c(=O)[nH]c1cc(OC[C@@H](N)CC(C)C)c(Br)cc12` [Example 49, (S)-8-(2-amino-4-methylpentyloxy)-9-bromo-4-methylbenzo[c][2,7]naphthyridin-5(6H)-one], the half-inhibitory concentration (IC50) was in the range of 1 to 10 nM.

With `CC(C)C[C@H](N)COc1cc2c(cc1-c1ccc(F)cc1)c1ccncc1c(=O)n2C` [Example 51, (S)-8-((2-amino-4-methylpentyl)oxy)-9-(4-fluorophenyl)-6 methylbenzo[c][2,7]naphthyridin-5(6H)-one], the IC50 lay within 100 to 2000 nM.

As to `CN[C@H](COc1cc2c(cc1C#N)c1ccnc(C)c1c(=O)n2C)CC(C)C` [Example 65, (S)-4,6-dimethyl-8-(4-methyl-2-(methylamino)pentyloxy)-5-oxo-5,6-dihydrobenzo[c][2,7]naphthyridine-9-carbonitrile], the IC50 was less than 1 nM.

As to `Cc1nccc2c1c(=O)[nH]c1cc(OC[C@@H](N)CC(C)C)ccc12` [Example 77, (S)-8-(2-amino-4-methylpentyloxy)-4-methylbenzo[c][2,7]naphthyridin-5(6H)-one], the IC50 fell in the range of 1 to 10 nM.

Consider `COCCn1c(=O)c2c(C)nccc2c2cc(Cl)c(OC[C@@H](N)CC(C)C)cc21` [Example 79, (S)-8-((2-amino-4-methylpentyl)oxy)-9-chloro-6-(2-methoxyethyl)-4-methylbenzo[c][2,7]naphthyridin-5(6H)-one], for which the concentration for half-maximal inhibition (IC50) fell in the range of 1 to 10 nM.

As for `Cc1nccc2c1c(=O)n(C)c1c(F)c(OC[C@@H](N)CC(C)C)ccc21` [Example 81, (S)-8-(2-amino-4-methylpentyloxy)-7-fluoro-4,6-dimethylbenzo[c][2,7]naphthyridin-5(6H)-one], the IC50 was in the range of 100 to 2000 nM.

With `COC(=O)c1cc2c3ccnc(C)c3c(=O)n(C)c2cc1OC[C@@H](N)CC(C)C` [Example 84, (S)-methyl 8-((2-amino-4-methylpentyl)oxy)-4,6-dimethyl-5-oxo-5,6-dihydrobenzo[c][2,7]naphthyridine-9-carboxylate], the IC50 lay in the range of 1 to 10 nM.

On to `CC(C)C[C@H](N)COc1ccc2c3c(F)cncc3c(=O)n(C)c2c1` [Example 85, (S)-8-((2-amino-4-methylpentyl)oxy)-1-fluoro-6-methylbenzo[c][2,7]naphthyridin-5(6H)-one], for which the IC50 is 10 to 100 nM.

Take `Cc1nccc2c1c(=O)n(C)c1cc(OC[C@@H](N)CC(C)C)c(C(N)=O)cc21` [Example 94, (S)-8-((2-amino-4-methylpentyl)oxy)-4,6-dimethyl-5-oxo-5,6-dihydrobenzo[c][2,7]naphthyridine-9-carboxamide]: the IC50 lay in the range of 10 to 100 nM.

Consider `COc1cncc2c(=O)n(C)c3cc(OC[C@@H](N)CC(C)C)ccc3c12` [Example 98, (S)-8-((2-amino-4-methylpentyl)oxy)-1-methoxy-6-methylbenzo[c][2,7]naphthyridin-5(6H)-one], for which the IC50 fell in the range of 100 to 2000 nM.

In the case of `COc1c(OC[C@@H](N)CC(C)C)ccc2c1[nH]c(=O)c1c(C)nccc12` [Example 99, (S)-8-(2-amino-4-methylpentyloxy)-7-methoxy-4-methylbenzo[c][2,7]naphthyridin-5(6H)-one], the IC50 was in the range of 100 to 2000 nM.

On to `COCc1cc2c3ccnc(C)c3c(=O)n(C)c2cc1OC[C@@H](N)CC(C)C` [Example 104, (S)-8-(2-amino-4-methylpentyloxy)-9-(methoxymethyl)-4,6-dimethylbenzo[c][2,7]naphthyridin-5(6H)-one], for which the IC50 lay within 10 to 100 nM.

Turning to `Cc1nccc2c1c(=O)n(C)c1c(F)c(OC[C@@H](N)CC(C)C)c(Cl)cc21` [Example 107, (S)-8-((2-amino-4-methylpentyl)oxy)-9-chloro-7-fluoro-4,6-dimethylbenzo[c][2,7]naphthyridin-5(6H)-one], the IC50 lay in the range of 1 to 10 nM.

As for `CC(C)Cc1cc2c3ccncc3c(=O)n(C)c2cc1OC[C@@H](N)CC(C)C` [Example 110, (S)-8-((2-amino-4-methylpentyl)oxy)-9-isobutyl-6-methylbenzo[c][2,7]naphthyridin-5(6H)-one], the IC50 lay in the range of 10 to 100 nM.

For `Cn1c(=O)c2cnccc2c2ccc(OCC(N)CCC(F)(F)F)cc21` (stereo not drawn) [Example 111, 8-((2-amino-5,5,5-trifluoropentyl)oxy)-6-methylbenzo[c][2,7]naphthyridin-5(6H)-one], the IC50 fell in the range of 1 to 10 nM.

Turning to `Cn1c(=O)c2cnccc2c2ccc(OCC(N)CCC(F)(F)F)cc21` (stereo not drawn) [Example 112, 8-((2-amino-5,5,5-trifluoropentyl)oxy)-6-methylbenzo[c][2,7]naphthyridin-5(6H)-one], the half-inhibitory concentration (IC50) lay within 1 to 10 nM.

For the compound `Cc1nccc2c1c(=O)n(C)c1cc(OCC(N)CCC(F)(F)F)ccc21` (stereo not drawn) [Example 123, 8-((2-amino-5,5,5-trifluoropentyl)oxy)-4,6-dimethylbenzo[c][2,7]naphthyridin-5(6H)-one], the IC50 lay within 10 to 100 nM.

Take `Cc1nccc2c1c(=O)n(C)c1cc(OCC(N)CCC(F)(F)F)c(Cl)cc21` (stereo not drawn) [Example 124, 8-((2-amino-5,5,5-trifluoropentyl)oxy)-9-chloro-4,6-dimethylbenzo[c][2,7]naphthyridin-5(6H)-one]: the IC50 is less than 1 nM.

In the case of `Cc1nccc2c1c(=O)n(C)c1cc(OC[C@@H](N)CC(C)C)c(C3CC3)cc21` [Example 125, (S)-8-((2-amino-4-methylpentyl)oxy)-9-cyclopropyl-4,6-dimethylbenzo[c][2,7]naphthyridin-5(6H)-one], the IC50 lay within 1 to 10 nM.

In the case of `Cc1nccc2c1c(=O)n(C)c1cc(OCC(N)CCC(F)(F)F)c(Br)cc21` (stereo not drawn) [Example 128, 8-((2-amino-5,5,5-trifluoropentyl)oxy)-9-bromo-4,6-dimethylbenzo[c][2,7]naphthyridin-5(6H)-one], the IC50 was less than 1 nM.

On to `Cc1nccc2c1c(=O)n(C)c1cc(OC[C@@H](N)CC(C)C)c(C(C)C)cc21` [Example 130, (S)-8-((2-amino-4-methylpentyl)oxy)-9-isopropyl-4,6-dimethylbenzo[c][2,7]naphthyridin-5(6H)-one], for which the IC50 lay in the range of 10 to 100 nM.

As to `COCCn1c(=O)c2c(C)nccc2c2cc(Br)c(OC[C@@H](N)CC(C)C)cc21` [Example 131, (S)-8-((2-amino-4-methylpentyl)oxy)-9-bromo-6-(2-methoxyethyl)-4-methylbenzo[c][2,7]naphthyridin-5(6H)-one], the IC50 is 10 to 100 nM.

On to `Cc1nccc2c1c(=O)n(CCO)c1cc(OC[C@@H](N)CC(C)C)c(Cl)cc21` [Example 132, (S)-8-((2-amino-4-methylpentyl)oxy)-9-chloro-6-(2-hydroxyethyl)-4-methylbenzo[c][2,7]naphthyridin-5(6H)-one], for which the IC50 is less than 1 nM.

As for `Cc1nccc2c1c(=O)n(C)c1c(F)c(OC[C@@H](N)CC(C)C)c(Br)cc21` [Example 134, (S)-8-((2-amino-4-methylpentyl)oxy)-9-bromo-7-fluoro-4,6-dimethylbenzo[c][2,7]naphthyridin-5(6H)-one], the IC50 fell in the range of 10 to 100 nM.

Turning to `Cc1nccc2c1c(=O)n(C)c1cc(OCC(N)CC(F)(F)F)c(Br)cc21` (stereo not drawn) [Example 137, 8-(2-amino-4,4,4-trifluorobutoxy)-9-bromo-4,6-dimethylbenzo[c][2,7]naphthyridin-5(6H)-one], the IC50 fell in the range of 1 to 10 nM.
